Assay results reported in PubChem BioAssay (NCI).
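GI50 is the concentration that inhibits growth by half. TGI: total growth inhibition.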

Assays:
Assay in all cases: DTP human tumour cell line panel, 384-well format
[1] = system: 786-0 renal
[2] = system: A498 renal
[3] = system: A549 NSCLC
[4] = system: ACHN renal
[5] = system: BT-549 breast
[6] = system: CAKI-1 renal
[7] = system: CCRF-CEM leukemia
[8] = system: COLO 205 colon
[9] = system: DU-145 prostate
[10] = system: HCC-2998 colon
[11] = system: HCT-116 colon
[12] = system: HCT-15 colon
[13] = system: HL-60(TB) leukemia
[14] = system: HOP-62 NSCLC
[15] = system: HOP-92 NSCLC
[16] = system: HT29 colon
[17] = system: IGROV1 ovarian
[18] = system: K-562 leukemia
[19] = system: KM12 colon
[20] = system: LOX IMVI melanoma
[21] = system: M14 melanoma
[22] = system: MALME-3M melanoma
[23] = system: MCF7 breast
[24] = system: MDA-MB-231 breast
[25] = system: MDA-MB-435 melanoma
[26] = system: MDA-MB-468 breast
[27] = system: MOLT-4 leukemia
[28] = system: NCI-H226 lung
[29] = system: NCI-H23 lung
[30] = system: NCI-H322M lung
[31] = system: NCI-H460 NSCLC
[32] = system: NCI-H522 lung
[33] = system: NCI/ADR-RES ovarian
[34] = system: OVCAR-3 ovarian
[35] = system: OVCAR-4 ovarian
[36] = system: OVCAR-5 ovarian
[37] = system: OVCAR-8 ovarian
[38] = system: PC-3 prostate
[39] = system: RPMI-8226 leukemia
[40] = system: RXF 393 renal
[41] = system: SF-268 CNS
[42] = system: SF-295 CNS
[43] = system: SF-539 CNS
[44] = system: SK-MEL-2 melanoma
[45] = system: SK-MEL-28 melanoma
[46] = system: SK-MEL-5 melanoma
[47] = system: SK-OV-3 ovarian
[48] = system: SN12C renal
[49] = system: SNB-19 CNS
[50] = system: SR leukemia
[51] = system: SW-620 colon
[52] = system: T-47D breast
[53] = system: TK-10 renal
[54] = system: U251 glioblastoma
[55] = system: UACC-257 melanoma
[56] = system: UACC-62 melanoma
[57] = system: UO-31 renal

Structure (SMILES): CNC(=O)n1ccc2cc(Oc3ccnc(NC(=O)c4ccc(C5CCN(CCO)CC5)cc4)c3)c(OCCOC)cc21
- GI50 [1]: 1.12 µM
- TGI [1]: 2.43 µM
- GI50 [2]: 1.26 µM
- TGI [2]: 2.96 µM
- GI50 [3]: 3.21 µM
- TGI [3]: 11.1 µM
- GI50 [4]: 1.73 µM
- TGI [4]: 3.31 µM
- GI50 [5]: 1.37 µM
- TGI [5]: 3.06 µM
- GI50 [6]: 2.77 µM
- TGI [6]: 5.47 µM
- GI50 [7]: 1.74 µM
- TGI [7]: 3.13 µM
- GI50 [8]: 2.27 µM
- TGI [8]: 5.23 µM
- GI50 [9]: 3.6 µM
- TGI [9]: 12.4 µM
- GI50 [10]: 2.24 µM
- TGI [10]: 4.07 µM
- GI50 [11]: 1.32 µM
- TGI [11]: 2.65 µM
- GI50 [12]: 1.67 µM
- TGI [12]: 3.18 µM
- GI50 [13]: 2.48 µM
- TGI [13]: 3.95 µM
- GI50 [14]: 2.12 µM
- TGI [14]: 4.61 µM
- GI50 [15]: 1.65 µM
- TGI [15]: 3.55 µM
- GI50 [16]: 0.171 µM
- TGI [16]: 0.699 µM
- GI50 [17]: 3.48 µM
- TGI [17]: 14 µM
- GI50 [18]: 0.186 µM
- TGI [18]: 0.451 µM
- GI50 [19]: 1.84 µM
- TGI [19]: 3.65 µM
- GI50 [20]: 1.72 µM
- TGI [20]: 3.11 µM
- GI50 [21]: 1.91 µM
- TGI [21]: 3.33 µM
- GI50 [22]: 1.83 µM
- TGI [22]: 3.24 µM
- GI50 [23]: 1.35 µM
- TGI [23]: 3.3 µM
- GI50 [24]: 1.65 µM
- TGI [24]: 3.17 µM
- GI50 [25]: 2.25 µM
- TGI [25]: 4.05 µM
- GI50 [26]: 1.86 µM
- TGI [26]: 3.28 µM
- GI50 [27]: 1.4 µM
- TGI [27]: 2.7 µM
- GI50 [28]: 0.0663 µM
- TGI [28]: 2.18 µM
- GI50 [29]: 3.86 µM
- TGI [29]: 13.4 µM
- GI50 [30]: 1.83 µM
- TGI [30]: 4.69 µM
- GI50 [31]: 1.65 µM
- TGI [31]: 3.1 µM
- GI50 [32]: 2.13 µM
- TGI [32]: 3.85 µM
- GI50 [33]: 4.83 µM
- TGI [33]: 16.6 µM
- GI50 [34]: 2.03 µM
- TGI [34]: 3.65 µM
- GI50 [35]: 1.38 µM
- TGI [35]: 2.83 µM
- GI50 [36]: 1.97 µM
- TGI [36]: 7.92 µM
- GI50 [37]: 1.82 µM
- TGI [37]: 3.3 µM
- GI50 [38]: 2.31 µM
- TGI [38]: 4.65 µM
- GI50 [39]: 1.52 µM
- TGI [39]: 2.86 µM
- GI50 [40]: 0.304 µM
- TGI [40]: 0.913 µM
- GI50 [41]: 1.77 µM
- TGI [41]: 3.65 µM
- GI50 [42]: 1.82 µM
- TGI [42]: 3.76 µM
- GI50 [43]: 1.02 µM
- TGI [43]: 2.19 µM
- GI50 [44]: 1.59 µM
- TGI [44]: 2.99 µM
- GI50 [45]: 1.84 µM
- TGI [45]: 3.25 µM
- GI50 [46]: 1.48 µM
- TGI [46]: 2.81 µM
- GI50 [47]: 1.83 µM
- TGI [47]: 3.62 µM
- GI50 [48]: 3.5 µM
- TGI [48]: 9.77 µM
- GI50 [49]: 3.61 µM
- TGI [49]: 11.8 µM
- GI50 [50]: 0.83 µM
- TGI [50]: 2.05 µM
- GI50 [51]: 3.01 µM
- TGI [51]: 4.96 µM
- GI50 [52]: 1.08 µM
- TGI [52]: 2.3 µM
- GI50 [53]: 1.96 µM
- TGI [53]: 4.44 µM
- GI50 [54]: 1.56 µM
- TGI [54]: 3.11 µM
- GI50 [55]: 1.42 µM
- TGI [55]: 2.73 µM
- GI50 [56]: 1.75 µM
- TGI [56]: 3.16 µM
- GI50 [57]: 0.498 µM
- TGI [57]: 1.74 µM
